Assays:
[1] = tested on: MDA231 human breast cancer cell line; assay: Xenograft model, tumor size; format: in vivo, Balb/c nude mice
Excerpt: Human cancer cell lines that were used for generation of murine xenograft models of human cancer are: a) MDA231 human breast cancer cell line; b) 7402 human liver cancer cell line; c) Colo205 human colon cancer cell lines; and d) MIAcapa human pancreatic cancer cell line. All cells were purchased from ATCC, and cultured in DMEM supplemented with 10% FCS.
Six (6) to 8 week-old Balb/c nude mice were inoculated subcutaneously with 1×10^7 human cancer cells. At day 7-14 after tumor inoculation depending on inoculated tumor cell lines, over 90% mice developed viable tumor mass. The tumor-bearing mice were randomly divided into two groups: one was untreated control group, and another was CTB003 treated group. Human cancer tumor growth was evaluated by sizes of tumor. After inoculation, tumor sizes were measured weekly.
The treatment was repeated six times within three weeks.
(§1) Six (6) to 8 week-old Balb/c nude mice were inoculated subcutaneously with 1×10^7 human MDA231 breast cancer cells. […] Human breast cancer tumor growth was evaluated by measuring the size of tumor. After inoculation the tumor sizes were measured in mice weekly. […]
as §1

[2] = tested on: human breast cancer cells (BT474); assay: ATPLite cell viability, CTB003 with chemotherapeutic drug; format: cell-based; conditions: combination with CTB003
Method: (§2) The cell lines selected for study included: human breast cancer cells (BT474), human colon cancer cells (SW620), human lung cancer cells (A437), human colon cancer cells (SW1116), and human pancreatic cancer cells (Panc 1). All cells were purchased from ATCC.
(§3) After culture at 37° C. overnight, cell viability was determined using the ATPLite kit according to the manufacturer's instructions (Packard Instruments, Meriden, Conn.): add 50 μl of cell lysis buffer and then 50 μl of substrate buffer. The reaction was counted in a luminescent reader. Cell viability was calculated as (cpm of treated cells/cmp of control cells)×100%.

[3] = tested on: human colon cancer cells (SW1116); assay: ATPLite cell viability, CTB003 with chemotherapeutic drug or mono-specific antibody; format: cell-based; conditions: for effect on CTB003 killing: combination with CTB003
Method: as §2, §3
as §3, with “for 16 h,” for “overnight,”

[4] = tested on: human lung cancer cells (A437); assay: ATPLite cell viability, CTB003 with chemotherapeutic drug; format: cell-based; conditions: combination with CTB003
Method: as §2, §3

[5] = tested on: human pancreatic cancer cells (Panc-1); assay: as above; format: cell-based; conditions: combination with CTB003
Method: as §2, §3

[6] = tested on: human colon cancer cells (SW620); assay: as above; format: cell-based; conditions: combination with CTB003
Method: as §2, §3

[7] = tested on: Human B lymphoma cells (Ramos); assay: ATPLite cell viability, apoptosis-inducing activity; format: cell-based; conditions: 10-1000 ng/ml antibody, 16 h
Method: (§4) Tumor cells may express differential levels of cell surface of TRAIL-R1 and TRAIL-R2, therefore a monospecific antibody directed against either TRAIL-R1 or TRAIL-R2 may not able to bind to and induce apoptosis of all tumor cells when administered alone. […] Human T leukemia cells (Jurkat) only express TRAIL-R2 but not TRAIL-R1. Human B lymphoma cells (Ramos) express high levels of TRAIL-R1 but low levels of TRAIL-R2.
After culture at 37° C. for 16 h, the cell viability of each culture was determined using the ATPLite kit according to the manufacturer's instructions (Packard Instruments, Meriden, Conn.): add 50 μl of cell lysis buffer and then 50 μl of substrate buffer. The reaction was counted in a luminescent reader. Cell viability was calculated as (cpm of treated cells/cmp of control cells)×100%.

[8] = tested on: Human B lymphoma cells (Ramos); assay: Flow cytometry analysis of cell surface binding; conditions: 10 μg/ml antibody; cells express high TRAIL-R1, low TRAIL-R2
Excerpt: as §4
(§5) 1×10^6 single cells were collected from cell culture medium and washed twice with FACS buffer (PBS containing 5% FCS, 0.1% NaN3, pH7.4). […] After washing twice with 1 ml FACS buffer, cells were further incubated with PE-conjugated goat anti-mouse IgG1 antibody on ice for 30 minutes. After washing twice with 1 ml FACS buffer, cells were suspended in 0.5 ml FACS buffer and 10,000 viable cells were analyzed by FACScan flow cytometer.

[9] = tested on: Human T leukemia cells (Jurkat); assay: Flow cytometry analysis of cell surface binding; conditions: 10 μg/ml antibody; cells express TRAIL-R2 but not TRAIL-R1
Excerpt: as §4, §5

[10] = tested on: binding of CTB003 to TRAIL-R2; assay: Competitive inhibition ELISA with polypeptides; design: species or system human; conditions: 1 μg/ml CTB003, various concentrations of peptide
Method: (§6) ELISA plate was coated with 1 μg/ml TRAIL-R2-Fc fusion protein in PBS at 4° C. overnight. After washing three times with PBS, the plate was blocked with 3% BSA PBS at room temperature for one hour. […] The unbound antibodies were removed by washing three time with PBS, and then HRP-conjugated goat anti-mouse IgG1 was added at 37° C. for 30 minutes. After washing three times with PBS, TMB substrate buffer was added for 10 minutes and then the reaction was stopped by adding 2N H2SO4. The values of optical density were recorded in a ELISA plate reader with a dual wavelength at 450 nm/650 nm.
as §6, with “μg/ml TRAIL-R1 or” for “μg/ml”

[11] = tested on: binding of CTB003 to TRAIL-R1; assay: Competitive inhibition ELISA with polypeptides; design: species or system human; conditions: 1 μg/ml CTB003, various concentrations of peptide
Method: as §6, with “μg/ml TRAIL-R1 or” for “μg/ml”

[12] = tested on: binding of humanized chimeric CTB003 to TRAIL-R2; assay: Competitive inhibition ELISA with polypeptides; design: species or system human; conditions: various concentrations of peptide
Method: as §6, with “μg/ml TRAIL-R1 or” for “μg/ml”

[13] = tested on: binding of humanized chimeric CTB003 to TRAIL-R1; assay: Competitive inhibition ELISA with polypeptides; design: species or system human; conditions: various concentrations of peptide
Method: as §6, with “μg/ml TRAIL-R1 or” for “μg/ml”

binding of CTB003 to TRAIL-R2, sequence (as listed by the source): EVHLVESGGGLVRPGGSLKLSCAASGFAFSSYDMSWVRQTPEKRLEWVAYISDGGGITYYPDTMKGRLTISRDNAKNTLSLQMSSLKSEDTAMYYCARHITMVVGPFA
binding of CTB003 to TRAIL-R2, sequence (as listed by the source): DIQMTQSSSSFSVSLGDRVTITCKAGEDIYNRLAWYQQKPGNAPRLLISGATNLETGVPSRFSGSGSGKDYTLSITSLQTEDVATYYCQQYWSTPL
binding of CTB003 to TRAIL-R2, sequence (O14763 56-210 partner limits assumed): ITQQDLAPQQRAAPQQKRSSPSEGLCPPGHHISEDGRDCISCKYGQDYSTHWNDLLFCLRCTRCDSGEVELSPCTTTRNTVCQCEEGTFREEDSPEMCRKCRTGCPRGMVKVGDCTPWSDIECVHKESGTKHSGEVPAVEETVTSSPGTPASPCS
binding of CTB003 to TRAIL-R1, sequence (O00220 24-239 partner limits assumed): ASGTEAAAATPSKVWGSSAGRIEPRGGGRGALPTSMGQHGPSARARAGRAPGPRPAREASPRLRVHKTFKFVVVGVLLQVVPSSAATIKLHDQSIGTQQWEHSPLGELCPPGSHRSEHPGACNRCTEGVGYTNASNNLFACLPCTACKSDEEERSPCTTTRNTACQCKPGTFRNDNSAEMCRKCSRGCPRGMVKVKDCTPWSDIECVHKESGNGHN
binding of humanized chimeric CTB003 to TRAIL-R2, sequence (as listed by the source, change not shown): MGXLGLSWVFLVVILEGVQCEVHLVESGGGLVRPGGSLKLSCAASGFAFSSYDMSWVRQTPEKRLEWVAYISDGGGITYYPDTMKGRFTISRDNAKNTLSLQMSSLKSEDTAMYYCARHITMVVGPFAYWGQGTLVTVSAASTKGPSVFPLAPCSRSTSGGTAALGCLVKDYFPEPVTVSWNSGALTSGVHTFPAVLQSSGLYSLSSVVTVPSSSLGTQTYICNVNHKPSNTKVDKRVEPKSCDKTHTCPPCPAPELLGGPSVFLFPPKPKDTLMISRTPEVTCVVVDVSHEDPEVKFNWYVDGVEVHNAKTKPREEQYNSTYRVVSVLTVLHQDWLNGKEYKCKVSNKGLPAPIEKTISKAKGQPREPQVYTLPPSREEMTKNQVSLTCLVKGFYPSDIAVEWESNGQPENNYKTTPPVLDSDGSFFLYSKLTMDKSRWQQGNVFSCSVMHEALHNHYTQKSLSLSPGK
binding of humanized chimeric CTB003 to TRAIL-R2, sequence (as listed by the source, change not shown): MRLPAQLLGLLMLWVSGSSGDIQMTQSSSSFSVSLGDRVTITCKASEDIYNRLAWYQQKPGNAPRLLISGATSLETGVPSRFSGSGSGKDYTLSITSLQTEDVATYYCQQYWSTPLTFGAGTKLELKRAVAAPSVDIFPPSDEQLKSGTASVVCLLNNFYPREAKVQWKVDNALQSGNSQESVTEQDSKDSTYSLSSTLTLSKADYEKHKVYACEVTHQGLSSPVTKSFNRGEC
binding of humanized chimeric CTB003 to TRAIL-R2, sequence (O14763 56-210 partner limits assumed): as the sequence (O14763 56-210 partner limits assumed) above
binding of humanized chimeric CTB003 to TRAIL-R1, sequence (O00220 24-239 partner limits assumed): as the sequence (O00220 24-239 partner limits assumed) above

COc1cccc2c1C(=O)c1c(O)c3c(c(O)c1C2=O)C[C@@](O)(C(=O)CO)C[C@@H]3O[C@H]1C[C@H](N)[C@H](O)[C@H](C)O1 [Adriamycin, reference compound]
effect on tumor ([1]; Adriamycin alone, 100 μg per dose i.p. twice a week for three times): tumor inhibition was observed but tumor size reduction was not remarkable | effect on CTB003 killing [2]: synergistically enhanced CTB003 killing in a dose-dependent fashion

CCc1c2c(nc3ccc(OC(=O)N4CCC(N5CCCCC5)CC4)cc13)-c1cc3c(c(=O)n1C2)COC(=O)[C@]3(O)CC [CTP-11, reference compound]
effect on CTB003 killing [3]: synergistically enhanced CTB003 killing in a dose-dependent fashion

N.N.[Cl][Pt][Cl] [Cisplatin, reference compound]
effect on CTB003 killing [4]: synergistically enhanced CTB003 killing in a dose-dependent fashion

Nc1ccn([C@@H]2O[C@H](CO)[C@@H](O)C2(F)F)c(=O)n1 [Gemcitabine, reference compound]
effect on CTB003 killing [5]: synergistically enhanced CTB003 killing in a dose-dependent fashion

CC(=O)O[C@H]1C(=O)[C@@]2(C)[C@H]([C@H](OC(=O)c3ccccc3)[C@]3(O)C[C@H](OC(=O)[C@H](O)[C@@H](NC(=O)c4ccccc4)c4ccccc4)C(C)=C1C3(C)C)[C@]1(OC(C)=O)CO[C@@H]1C[C@@H]2O [Taxol]
effect on CTB003 killing [6]: synergistically enhanced CTB003 killing in a dose-dependent fashion

CTB006: Murine monospecific antibody directed to TRAIL-R2 receptor; hybridoma CGMCC 1691
effect on CTB003 killing [3]: synergistically enhanced CTB003 killing in a dose-dependent fashion | cell killing by antibody alone ([3]; single antibody): did not induce cell killing | effect on tumor ([1]; CTB006 alone, 100 μg i.p. twice a week for three times): tumor inhibition was observed but tumor size reduction was not remarkable | susceptibility to antibody-induced apoptosis [7]: not susceptible | cell surface staining [8]: only weakly stained | cell surface staining [9]: positively stained

MVKVGDCTPWSDIECVHKESGTKHSGEAPA [peptide G, TRAIL-R2 (aa164-aa193), reference compound]
inhibition of antibody binding [10]: inhibited the binding of CTB003 to TRAIL-R2 in a dose-dependent manner

RKCRTGCPRGMVKVGDCTPWSDIECVHKES [peptide F, TRAIL-R2 (aa154-aa183), reference compound]
inhibition of antibody binding [10]: inhibited the binding of CTB003 to TRAIL-R2 in a dose-dependent manner

VGDCTPWSDIECVHKE [peptide H]
inhibition of antibody binding [10]: inhibited the binding of CTB003 to TRAIL-R2 in a dose-dependent manner | inhibition of antibody binding [11]: inhibited the binding of CTB003 to TRAIL-R1 in a dose-dependent manner | inhibition of antibody binding [12]: inhibited the binding of humanized chimeric CTB003 to TRAIL-R2 in a dose-dependent manner | inhibition of antibody binding [13]: inhibited the binding of humanized chimeric CTB003 to TRAIL-R1 in a dose-dependent manner

VKDCTPWSDIECVHKE [peptide I]
inhibition of antibody binding [10]: inhibited the binding of CTB003 to TRAIL-R2 in a dose-dependent manner | inhibition of antibody binding [11]: inhibited the binding of CTB003 to TRAIL-R1 in a dose-dependent manner | inhibition of antibody binding [12]: inhibited the binding of humanized chimeric CTB003 to TRAIL-R2 in a dose-dependent manner | inhibition of antibody binding [13]: inhibited the binding of humanized chimeric CTB003 to TRAIL-R1 in a dose-dependent manner

— patent publication US7897730B2, “TRAIL receptor-binding agents and uses of the same” (Beijing Cotimes Biotech Ltd., priority 2006, dated 2011)
